Where two headings read alike, the source gives them in different places.
Tests used:
Sgk3 = molecular target: T1, Sgk3 (Homo sapiens, UniProt Q96BR1); test: Enzyme based assay for SGK3; format: biochemical
T1 sequence (Q96BR1 1-496): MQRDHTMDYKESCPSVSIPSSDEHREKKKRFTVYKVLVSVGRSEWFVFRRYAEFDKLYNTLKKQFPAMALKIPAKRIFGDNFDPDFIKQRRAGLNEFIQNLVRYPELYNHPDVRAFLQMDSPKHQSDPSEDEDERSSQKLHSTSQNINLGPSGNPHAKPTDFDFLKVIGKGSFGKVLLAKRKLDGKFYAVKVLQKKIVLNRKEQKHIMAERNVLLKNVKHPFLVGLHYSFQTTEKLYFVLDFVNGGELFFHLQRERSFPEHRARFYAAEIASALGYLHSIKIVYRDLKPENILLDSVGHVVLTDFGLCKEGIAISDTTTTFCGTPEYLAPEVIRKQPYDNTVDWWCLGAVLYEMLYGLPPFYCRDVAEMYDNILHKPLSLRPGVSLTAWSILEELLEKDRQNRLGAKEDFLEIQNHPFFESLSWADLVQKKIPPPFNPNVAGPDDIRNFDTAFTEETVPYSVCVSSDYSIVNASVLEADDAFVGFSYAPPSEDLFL
Description: (§1) 1. Enzyme Based Assays for SGK1, SGK2, SGK3, and Akt1
(§2) The kinase enzymatic reaction is carried out with a biotinylated Akt Substrates-2 peptide substrate. The phosphorylated substrate is then detected using a specific anti-phospho peptide antibody which is coupled with Eu^3+ Cryptate and XL665 conjugated with streptavidin.
(§3) Exemplary Assay Conditions
(§4) • Enzyme: ˜0.1 nM • Substrate: 0.2 μM • ATP: 50 μM and 1 mM • Mg^2+: 10 mM • Reaction time: 60 min with 50 μM ATP and 30 min with 1 mM ATP • SA-XL to Biotin: 1:10
(§5) Detailed Steps • 1. prepare the enzyme and substrate solution with the buffer from Cisbio • 2. add the enzyme and substrate solution to the diluted compound plate • 3. transfer 5 μL of compound, enzyme, and substrate mixture to an 384-well assay plate • 4. add 5 μL ATP (with Mg^2+) solution to initiate the reaction • 5. after certain time, add 10 μL of stop solution containing SA-XL and specific antibody • 6. read the plate after 2 h incubation at rt • 7. process the data using prizm software (Exemplary results are shown in FIG. 1.) 2. PK Studies Protocol

Sgk1 = molecular target: T2, Sgk1 (Homo sapiens, UniProt O00141); test: Enzyme based assay for SGK1 (biotinylated Akt Substrates-2 peptide, Eu3+ Cryptate/XL665 detection); format: biochemical
T2 sequence (O00141 1-431): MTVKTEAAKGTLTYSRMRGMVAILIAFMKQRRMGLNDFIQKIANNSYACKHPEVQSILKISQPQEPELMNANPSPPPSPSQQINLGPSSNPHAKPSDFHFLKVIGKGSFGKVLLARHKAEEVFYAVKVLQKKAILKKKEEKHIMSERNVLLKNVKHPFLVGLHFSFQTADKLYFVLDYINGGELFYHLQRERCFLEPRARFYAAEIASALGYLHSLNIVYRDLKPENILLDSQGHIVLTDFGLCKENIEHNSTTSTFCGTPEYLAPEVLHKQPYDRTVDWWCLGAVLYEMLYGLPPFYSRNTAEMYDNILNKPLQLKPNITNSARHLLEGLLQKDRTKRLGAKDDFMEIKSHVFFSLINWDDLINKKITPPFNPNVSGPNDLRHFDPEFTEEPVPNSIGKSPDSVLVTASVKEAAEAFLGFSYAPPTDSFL
Description: as §1, §2, §3, §4, §5

Sgk2 = molecular target: T3, Sgk2 (Homo sapiens, UniProt Q9HBY8); test: Enzyme based assay for SGK2 (biotinylated Akt Substrates-2 peptide, Eu3+ Cryptate/XL665 detection); format: biochemical
T3 sequence (Q9HBY8 1-367): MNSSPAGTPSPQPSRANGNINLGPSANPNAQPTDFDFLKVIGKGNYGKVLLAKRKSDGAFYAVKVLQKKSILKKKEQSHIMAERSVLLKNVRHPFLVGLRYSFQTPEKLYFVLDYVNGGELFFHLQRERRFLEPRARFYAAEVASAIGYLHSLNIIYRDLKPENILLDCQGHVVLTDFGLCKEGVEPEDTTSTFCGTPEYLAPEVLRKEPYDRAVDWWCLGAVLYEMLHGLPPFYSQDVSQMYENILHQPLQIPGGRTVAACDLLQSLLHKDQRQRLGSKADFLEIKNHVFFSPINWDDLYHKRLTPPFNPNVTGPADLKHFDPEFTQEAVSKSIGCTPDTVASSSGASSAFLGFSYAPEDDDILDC
Description: as §1, §2, §3, §4, §5

293T_O = 293T_O cell testing (Table 2); format: cell-based; settings: 293T_O cells
293T = 293T cell testing (Table 2); format: cell-based; settings: Homo sapiens, HEK-293T; 293T cells
HeLa = HeLa cell testing (Table 2); format: cell-based; settings: Homo sapiens; HeLa cells
[1] = PK study in male ICR mice, intravenous and oral administration, plasma concentration; format: in vivo; settings: for MRT inf: read-out: MRT(0-∞)
Description: 3 Male mice/group, 8 groups total with Intravenous and Oral Administration, then measure the compound concentration in plasma.
Selected Pharmacokinetics Parameters of Compound N in Male ICR Mice Following Intravenous and Oral Administration

[2] = 50 μM ATP, read-out: Sgk1 (50 μM ATP)
[3] = 1 mM ATP, read-out: Sgk1 (1 mM ATP)
[4] = 50 μM ATP, read-out: Sgk2 (50 μM ATP)
[5] = 1 mM ATP, read-out: Sgk2 (1 mM ATP)

| SMILES | IC50 (Sgk3) [µM] | IC50 (Sgk1; [2]) [µM] | IC50 (Sgk1; [3]) [µM] | IC50 (Sgk2; [4]) [µM] | IC50 (Sgk2; [5]) [µM] | IC50 (HeLa) [µM] | also measured |
| --- | --- | --- | --- | --- | --- | --- | --- |
| CCOc1cc(-c2ccc(NS(=O)(=O)c3cc(OC)ccc3F)cc2)cc2[nH]nc(N)c12 | 0.13 | 0.0118 | 0.002 | 0.0123 | 0.0299 | – | – |
| COc1ccc(Cl)c(S(=O)(=O)Nc2ccc(-c3ccc4c(N)n[nH]c4n3)cc2)c1 | – | 0.0126 | 0.0677 | 0.0021 | 0.0651 | 21.9 | IC50 (293T_O): 45.5 µM; IC50 (293T): 60.7 µM |
| COc1ccc(Cl)c(S(=O)(=O)Nc2ccc(-c3cc4[nH]ncc4c(OCC4CNCCO4)n3)cc2)c1 (stereo not shown) | – | 0.0025 | 0.0069 | 0.002 | 0.0158 | 11.7 | IC50 (293T_O): 35.1 µM; IC50 (293T): 20.4 µM |
| COc1ccc(F)c(S(=O)(=O)Nc2ccc(-c3ccc4cn[nH]c4n3)cc2)c1 | – | 0.0052 | 0.15 | 0.0018 | 0.066 | > 50 | – |
| COc1ccc(F)c(S(=O)(=O)Nc2ccc(-c3ccc4c(N)n[nH]c4n3)cc2)c1 [drawing 140] | 0.07 | 0.0029 | 0.0065 | 0.002 | 0.0065 | 21.4 | – |
| O=S(=O)(Nc1ccc(-c2ccc3cn[nH]c3c2)cc1)c1cc(Cl)ccc1F | – | 0.124 | 0.352 | 0.0321 | 0.664 | 2.47 | – |
| COc1ccc(F)c(S(=O)(=O)Nc2ccc(-c3cc(OC)c4c(N)n[nH]c4c3)cc2)c1 [drawing 108] | 0.04 | 0.0024 | 0.0178 | 0.0051 | 0.0089 | – | – |
| COCCOc1cc(-c2ccc(NS(=O)(=O)c3cc(OC)ccc3F)cc2)cc2[nH]nc(N)c12 | 0.1 | 0.0277 | 0.0928 | 0.008 | 0.0213 | – | – |
| COc1ccc(F)c(S(=O)(=O)Nc2ccc(-c3cc(NCC4CNCCO4)c4cn[nH]c4c3)cc2)c1 (stereo not shown) | 0.15 | 0.0019 | 0.0124 | 0.0017 | 0.0066 | – | – |
| COc1ccc(F)c(S(=O)(=O)Nc2ccc(-c3cc(C)c4c(N)n[nH]c4n3)cc2)c1 [drawing 111] | 0.03 | 0.0028 | 0.0055 | 0.0041 | 0.0037 | – | – |
| Nc1n[nH]c2nc(-c3ccc(NS(=O)(=O)c4cc(Cl)ccc4F)cc3)ccc12 | – | 0.238 | > 2 | 0.0218 | 0.569 | 20.1 | – |
| COc1ccc(F)c(S(=O)(=O)Nc2ccc(-c3ccc4c(N)n[nH]c4c3)nc2)c1 [Compound N, N-(6-(3-amino-1H-indazol-6-yl)pyridin-3-yl)-2-fluoro-5-methoxybenzenesulfonamide] | – | – | – | – | – | – | CLz ([1]; IV (2 mg/kg)): 0.01 L/h/kg; t1/2z ([1]; IV (2 mg/kg)): 6.99 h; t1/2z ([1]; PO (20 mg/kg)): 17.27 h; F ([1]; PO (20 mg/kg), F is calculated from AUC(0-t)): 63.37%; AUC(0-inf) ([1]; mouse, plasma, IV (2 mg/kg)): 165 µg·h/mL; AUC(0-t) ([1]; mouse, plasma, IV (2 mg/kg)): 151 µg·h/mL; Cmax ([1]; mouse, plasma, IV (2 mg/kg)): 29.1 µg/mL; Tmax ([1]; mouse, plasma, IV (2 mg/kg)): 0.08 h; MRT inf ([1]; mouse, plasma, IV (2 mg/kg)): 8.84 h; Vd ([1]; mouse, plasma, IV (2 mg/kg), read-out: Vz): 0.12 L/kg; AUC(0-inf) ([1]; mouse, plasma, PO (20 mg/kg)): 1530 µg·h/mL; AUC(0-t) ([1]; mouse, plasma, PO (20 mg/kg)): 957 µg·h/mL; Cmax ([1]; mouse, plasma, PO (20 mg/kg)): 71.9 µg/mL; Tmax ([1]; mouse, plasma, PO (20 mg/kg)): 0.25 h; MRT inf ([1]; mouse, plasma, PO (20 mg/kg)): 24.1 h |
| O=S(=O)(Nc1ccc(-c2ccc3cn[nH]c3n2)cc1)c1cc(Cl)ccc1F | – | 0.0979 | 0.077 | 0.0059 | 0.169 | 2.17 | – |
| COc1ccc(F)c(S(=O)(=O)Nc2ccc(-c3cc4[nH]nc(N)c4c(C)n3)cc2)c1 [drawing 110] | 0.05 | 0.0106 | 0.0085 | 0.0031 | 0.0053 | – | – |
| COc1ccc(F)c(S(=O)(=O)Nc2ccc(-c3cc(OCCO)c4c(N)n[nH]c4c3)cc2)c1 | 0.09 | 0.0051 | 0.0077 | 0.0079 | 0.0062 | – | – |
| COc1ccc(F)c(S(=O)(=O)Nc2ccc(-c3cc(CCC4CNCCO4)c4cn[nH]c4c3)cc2)c1 (stereo not shown) | 0.15 | 0.0032 | 0.0116 | 0.0041 | 0.0082 | – | – |
| COc1ccc(F)c(S(=O)(=O)Nc2ccc(-c3cc(O[C@@H]4CCOC4)c4c(N)n[nH]c4c3)cc2)c1 | – | 0.0055 | 0.0015 | 0.0046 | 0.0093 | – | – |
| COc1ccc(F)c(S(=O)(=O)Nc2ccc(-c3cc(OC)c4c(N)n[nH]c4c3)cn2)c1 | – | 0.0297 | 0.133 | 0.0072 | 0.0297 | – | – |
| COc1ccc(F)c(S(=O)(=O)Nc2ccc(-c3cc4[nH]ncc4c(OCC4CNCCO4)n3)cc2)c1 (stereo not shown) [drawing 105] | 0.1 | 0.0013 | 0.0134 | 0.0016 | 0.01 | – | – |
| COCCOc1cc(-c2ccc(NS(=O)(=O)c3cc(OC)ccc3F)cc2)nc2[nH]nc(N)c12 | – | 0.0287 | 0.0104 | 0.0096 | 0.0694 | – | – |
